Legend:
FPR1 [1] = molecular target: T1, FPR1 (Homo sapiens (Human), UniProt P21462); test: Cyclic adenosine monophosphate (cAMP) assay, CHO-K1 cells stably overexpressing hFPR1; assay type: cell-based; details: 2.5 μM Forskolin and 0.25 nM WKYMVm (FPR1 agonist)
Method: Cyclic Adenosine Monophosphate (cAMP) Assay
CHO-K1 cells stably overexpressing hFPR1 were plated into 384-well cell culture plates (2,000/well/5 μL) in 1× Stimulation Buffer (LANCE Ultra cAMP Kit, Perkin Elmer, TRF0263). 1 μL compound solution (prepared in ddH2O containing 0.2% DMSO) was added to each well. Plates were centrifuged briefly, and cells were incubated at 37° C. in 5% CO2 for 10 minutes. 4 μL solution containing 2.5 μM Forskolin and 0.25 nM WKYMVm (an FPR1 agonist, GLPBIO, GC15140) was then added to each well. 5 μL of Eu-cAMP solution (diluted to manufacturer's recommended working concentration in Detection Buffer, LANCE Ultra cAMP Kit) and 5 μL of ULight-anti-cAMP solution (diluted in Detection Buffer, LANCE Ultra cAMP Kit) were added to each well. Plates were centrifuged briefly, and cells were incubated at room temperature for 1 hour. Fluorescence emission at 665 nm and 620 nm from the samples was measured by a Perkin Elmer Envision instrument.
(§1) The effects of the compounds of the present disclosure on regulating the FPR1-mediated cell signaling were measured by monitoring the cellular cAMP level change and anti-reactive oxygen species formation in human neutrophils in the presence of an FPR1 agonist, respectively, as illustrated by the examples in Table 1.

FPR1 [2] = molecular target: T1, FPR1; test: Reactive oxygen species (ROS) assay in human neutrophils stimulated with fMLP; assay type: cell-based; details: human neutrophils from whole blood; fMLP (500 nM); DCFH-DA fluorescence; read-out: Anti-ROS IC50
Method: Reactive Oxygen Species (ROS) Assay
Human whole blood was collected, and ACK lysis buffer (ThermoFisher, A1049201) was added at 3 times the volume of the blood sample to lyse the red blood cells. The sample was incubated on ice for 15 minutes, and gently mixed twice during the incubation. 10 mL DPBS was then added, and the sample was centrifuged for 8 minutes. After removing the supernatant, remaining cells were resuspended in RPMI1640 medium containing 3% FBS and centrifuged again for 10 minutes. After removing the supernatant, cells were again resuspended in RPMI1640 medium containing 3% FBS. Neutrophil cell count was determined using FACS analysis by APC-labeled CD11b antibody (Biolegend, 101211) and FITC-labeled CD66b antibody (Biolegend, 305104). Neutrophils were then plated into 96-well plates (300,000/well). Plates were centrifuged and supernatant was removed. Cells were resuspended in 80 μL of compound solution (prepared in RPMI1640 medium containing 3% FBS), then incubated at room temperature for 15 minutes. 20 μL solution containing DCFH-DA (at the manufacturer's recommended concentration, Yeasen Biotechnology, 50101ES01) and fMLP (500 nM) was then added. Cells were incubated at 37° C. in 5% CO2 for 20 minutes away from light. After incubation, cells were placed on ice for 5 minutes, washed twice with 200 μL ice-cold DPBS, then resuspended in ice-cold DPBS at 100 µL/well. Fluorescence from each sample was measured at 485 nm excitation and 535 nm emission.
as §1

T1 sequence (P21462 whole entry): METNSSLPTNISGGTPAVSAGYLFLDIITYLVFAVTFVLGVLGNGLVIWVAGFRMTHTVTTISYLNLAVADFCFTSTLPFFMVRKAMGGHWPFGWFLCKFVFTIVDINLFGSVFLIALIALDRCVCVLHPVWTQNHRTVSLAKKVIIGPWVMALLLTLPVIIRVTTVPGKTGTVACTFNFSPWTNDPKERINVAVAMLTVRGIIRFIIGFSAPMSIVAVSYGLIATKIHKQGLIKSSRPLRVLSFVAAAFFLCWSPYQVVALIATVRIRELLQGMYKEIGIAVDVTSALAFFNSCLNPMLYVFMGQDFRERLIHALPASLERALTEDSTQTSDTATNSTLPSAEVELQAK

Row | IC50 (FPR1 [1]) | IC50 (FPR1 [2]) | Compound
1 | 100 to 1000 nM | 100 to 1000 nM | C[C@H](NC(=O)c1c(NS(=O)(=O)c2ccc(C#N)cc2)c(-c2ccc(F)cc2)nn1C)C(C)(C)C [Compound 1, (S)-4-((4-cyanophenyl)sulfonamido)-N-(3,3-dimethylbutan-2-yl)-3-(4-fluorophenyl)-1-methyl-1H-pyrazole-5-carboxamide]
2 | > 25000 nM | – | CC[C@H](C)NC(=O)c1c(NS(=O)(=O)c2ccccc2)c(-c2ccc(F)cc2)nn1C [Compound 3, (S)—N-(sec-butyl)-3-(4-fluorophenyl)-1-methyl-4-(phenylsulfonamido)-1H-pyrazole-5-carboxamide]
3 | > 25000 nM | – | C[C@H](NC(=O)c1c(NS(=O)(=O)c2ccc(Cl)cc2)c(-c2ccncc2)nn1C)C(C)(C)C [Compound 5, (S)-4-((4-chlorophenyl)sulfonamido)-N-(3,3-dimethylbutan-2-yl)-1-methyl-3-(pyridin-4-yl)-1H-pyrazole-5-carboxamide]
4 | 100 to 1000 nM | < 100 nM | CO[C@H]1CC[C@@H](c2nn(C)c(C(=O)N[C@@H](C)C(C)(C)C)c2NS(=O)(=O)c2ccc(C)cc2)CC1 [Compound 6, N—((S)-3,3-dimethylbutan-2-yl)-3-((1s,4R)-4-methoxycyclohexyl)-1-methyl-4-((4-methylphenyl)sulfonamido)-1H-pyrazole-5-carboxamide]
5 | 100 to 1000 nM | 100 to 1000 nM | C[C@H](NC(=O)c1c(NS(=O)(=O)c2ccc(Cl)cc2)c(C2CCOCC2)nn1C)C(C)(C)C [Compound 9, (S)-4-((4-chlorophenyl)sulfonamido)-N-(3,3-dimethylbutan-2-yl)-1-methyl-3-(tetrahydro-2H-pyran-4-yl)-1H-pyrazole-5-carboxamide]
6 | > 25000 nM | – | C[C@H](NC(=O)c1c(NS(=O)(=O)c2ccc(Cl)cc2)c(C2CCOCC2)nn1C1CC1)C(C)(C)C [Compound 10, (S)-4-((4-chlorophenyl)sulfonamido)-1-cyclopropyl-N-(3,3-dimethylbutan-2-yl)-3-(tetrahydro-2H-pyran-4-yl)-1H-pyrazole-5-carboxamide]
7 | > 25000 nM | – | C[C@H](NC(=O)c1noc(C2CCOCC2)c1NS(=O)(=O)c1ccc(Cl)cc1)C(C)(C)C [Compound 11, (S)-4-((4-chlorophenyl)sulfonamido)-N-(3,3-dimethylbutan-2-yl)-5-(tetrahydro-2H-pyran-4-yl)isoxazole-3-carboxamide]
8 | > 25000 nM | 100 to 1000 nM | COCc1cccc(-c2nn(C)c(C(=O)N[C@@H](C)C(C)(C)C)c2NS(=O)(=O)c2ccc(C)cc2)c1 [Compound 15, (S)—N-(3,3-dimethylbutan-2-yl)-3-(3-(methoxymethyl)phenyl)-1-methyl-4-((4-methylphenyl)sulfonamido)-1H-pyrazole-5-carboxamide]
9 | 1000 to 25000 nM | 100 to 1000 nM | Cc1ccc(S(=O)(=O)Nc2c(C3=CCOCC3)nn(C)c2C(=O)N[C@@H](C)C(C)(C)C)cc1 [Compound 16, (S)-3-(3,6-dihydro-2H-pyran-4-yl)-N-(3,3-dimethylbutan-2-yl)-1-methyl-4-((4-methylphenyl)sulfonamido)-1H-pyrazole-5-carboxamide]
10 | > 25000 nM | – | Cc1ccc(S(=O)(=O)Nc2c(C3=CCC(C)(C)CC3)nn(C)c2C(=O)N[C@@H](C)C(C)(C)C)cc1 [Compound 18, (S)—N-(3,3-dimethylbutan-2-yl)-3-(4,4-dimethylcyclohex-1-en-1-yl)-1-methyl-4-((4-methylphenyl)sulfonamido)-1H-pyrazole-5-carboxamide]
11 | 100 to 1000 nM | < 100 nM | CO[C@H]1CC[C@@H](c2nn(C)c(C(=O)N[C@@H](C)C(C)(C)C)c2NS(=O)(=O)c2ccc(Cl)cc2)CC1 [Compound 19, 4-((4-chlorophenyl)sulfonamido)-N—((S)-3,3-dimethylbutan-2-yl)-3-((1S,4R)-4-methoxycyclohexyl)-1-methyl-1H-pyrazole-5-carboxamide]
12 | 100 to 1000 nM | < 100 nM | CO[C@H]1CC[C@@H](c2nn(C)c(C(=O)N[C@@H](C)C(C)(C)C)c2NS(=O)(=O)c2ccc(C3CC3)cc2)CC1 [Compound 20, 4-((4-cyclopropylphenyl)sulfonamido)-N—((S)-3,3-dimethylbutan-2-yl)-3-((1S,4R)-4-methoxycyclohexyl)-1-methyl-1H-pyrazole-5-carboxamide]
13 | < 100 nM | < 100 nM | CO[C@H]1CC[C@@H](c2nn(C)c(C(=O)N[C@@H](C)C(C)(C)C)c2NS(=O)(=O)c2ccc(C#N)cc2)CC1 [Compound 21, 4-((4-cyanophenyl)sulfonamido)-N—((S)-3,3-dimethylbutan-2-yl)-3-((1S,4R)-4-methoxycyclohexyl)-1-methyl-1H-pyrazole-5-carboxamide]
14 | 100 to 1000 nM | < 100 nM | COC1CC=C(c2nn(C)c(C(=O)N[C@@H](C)C(C)(C)C)c2NS(=O)(=O)c2ccc(Cl)cc2)CC1 (stereo partly drawn) [Compound 22, 4-((4-chlorophenyl)sulfonamido)-N—((S)-3,3-dimethylbutan-2-yl)-3-(4-methoxycyclohex-1-en-1-yl)-1-methyl-1H-pyrazole-5-carboxamide]
15 | 1000 to 25000 nM | 1000 to 25000 nM | C[C@H](NC(=O)c1c(NS(=O)(=O)c2ccc(Cl)cc2)c(C2CCC3(CC2)OCCO3)nn1C)C(C)(C)C [Compound 23, (S)-4-((4-chlorophenyl)sulfonamido)-N-(3,3-dimethylbutan-2-yl)-1-methyl-3-(1,4-dioxaspiro[4.5]decan-8-yl)-1H-pyrazole-5-carboxamide]
16 | > 25000 nM | – | Cc1ccc(S(=O)(=O)Nc2c(C3=CCC(F)(F)CC3)nn(C)c2C(=O)N[C@@H](C)C(C)(C)C)cc1 [Compound 29, (S)-3-(4,4-difluorocyclohex-1-en-1-yl)-N-(3,3-dimethylbutan-2-yl)-1-methyl-4-((4-methylphenyl)sulfonamido)-1H-pyrazole-5-carboxamide]
17 | 1000 to 25000 nM | – | Cc1ccc(S(=O)(=O)Nc2c(C3=CCOCC3)nn(C)c2C(=O)N[C@@H](C)C(C)(C)C)cc1 [Compound 30, (S)-3-(3,6-dihydro-2H-pyran-4-yl)-N-(3,3-dimethylbutan-2-yl)-1-methyl-4-((4-methylphenyl)sulfonamido)-1H-pyrazole-5-carboxamide]
18 | > 25000 nM | – | Cc1ccc(S(=O)(=O)Nc2c(C3(O)CCOCC3)nn(C)c2C(=O)N[C@@H](C)C(C)(C)C)cc1 [Compound 31, (S)—N-(3,3-dimethylbutan-2-yl)-3-(4-hydroxytetrahydro-2H-pyran-4-yl)-1-methyl-4-((4-methylphenyl)sulfonamido)-1H-pyrazole-5-carboxamide]
19 | 1000 to 25000 nM | – | Cc1ccc(S(=O)(=O)Nc2c(C3=CCC(C#N)CC3)nn(C)c2C(=O)N[C@@H](C)C(C)(C)C)cc1 (stereo partly drawn) [Compound 32, 3-(4-cyanocyclohex-1-en-1-yl)-N—((S)-3,3-dimethylbutan-2-yl)-1-methyl-4-((4-methylphenyl)sulfonamido)-1H-pyrazole-5-carboxamide]
20 | > 25000 nM | – | Cc1ccc(S(=O)(=O)Nc2c(-c3cccc(OC(F)(F)F)c3)nn(C)c2C(=O)N[C@@H](C)C(C)(C)C)cc1 [Compound 34, (S)—N-(3,3-dimethylbutan-2-yl)-1-methyl-4-((4-methylphenyl)sulfonamido)-3-(3-(trifluoromethoxy)phenyl)-1H-pyrazole-5-carboxamide]
21 | > 25000 nM | – | C[C@H](NC(=O)c1c(NS(=O)(=O)c2ccc(Cl)cc2)c(C2=CCC(F)(F)CC2)nn1C)C(C)(C)C [Compound 36, (S)-4-((4-chlorophenyl)sulfonamido)-3-(4,4-difluorocyclohex-1-en-1-yl)-N-(3,3-dimethylbutan-2-yl)-1-methyl-1H-pyrazole-5-carboxamide]
22 | 1000 to 25000 nM | – | COCc1cncc(-c2nn(C)c(C(=O)N[C@@H](C)C(C)(C)C)c2NS(=O)(=O)c2ccc(Cl)cc2)c1 [Compound 40, (S)-4-((4-chlorophenyl)sulfonamido)-N-(3,3-dimethylbutan-2-yl)-3-(5-(methoxymethyl)pyridin-3-yl)-1-methyl-1H-pyrazole-5-carboxamide]

Row | Compound | IC50 (FPR1 [1]) | IC50 (FPR1 [2])
23 | Cc1ccc(S(=O)(=O)Nc2c(-c3cccc(OCC(C)C)c3)nn(C)c2C(=O)N[C@@H](C)C(C)(C)C)cc1 [Compound 35, (S)—N-(3,3-dimethylbutan-2-yl)-3-(3-isobutoxyphenyl)-1-methyl-4-((4-methylphenyl)sulfonamido)-1H-pyrazole-5-carboxamide] | > 25000 nM | –

Reference: patent publication US20240018124A1, “MODULATORS OF FPR1 AND METHODS OF USING THE SAME” (BIOFRONT LTD, priority 2021, published 2024)
